# Experimental data as given in patent US8394969B2, “Cyclic benzimidazole derivatives useful as anti-diabetic agents” (Merck Sharp & Dohme Corp., priority 2008, dated 2013).
# pEC50: −log10 of the molar value. Counter-ions that a name gives are not always drawn.
# Target: recombinant human AMPK complex 1 (containing α1β1γ1) (Homo sapiens, UniProt Q13131+Q9Y478)
# Assay: […] (in vitro AMPK activation assay)
# Format: biochemical
# Conditions: read-out: % Maximum AMP Activation of human AMPK Complex 1
# recombinant human AMPK complex 1 (containing α1β1γ1), sequence (Q13131 whole entry): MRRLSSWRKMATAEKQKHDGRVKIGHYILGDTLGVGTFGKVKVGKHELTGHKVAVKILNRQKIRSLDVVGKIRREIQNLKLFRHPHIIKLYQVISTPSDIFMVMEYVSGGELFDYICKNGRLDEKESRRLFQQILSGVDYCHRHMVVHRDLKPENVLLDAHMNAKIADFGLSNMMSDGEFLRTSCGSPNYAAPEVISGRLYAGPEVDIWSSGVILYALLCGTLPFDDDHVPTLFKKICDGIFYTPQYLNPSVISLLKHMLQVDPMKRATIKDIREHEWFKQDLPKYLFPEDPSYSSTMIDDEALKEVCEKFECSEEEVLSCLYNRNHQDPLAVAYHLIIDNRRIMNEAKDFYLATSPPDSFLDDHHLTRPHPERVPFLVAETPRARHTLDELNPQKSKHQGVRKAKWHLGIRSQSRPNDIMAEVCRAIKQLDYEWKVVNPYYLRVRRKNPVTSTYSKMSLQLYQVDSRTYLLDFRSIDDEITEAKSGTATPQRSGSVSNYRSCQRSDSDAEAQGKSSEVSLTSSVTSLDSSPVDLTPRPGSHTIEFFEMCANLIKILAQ
# recombinant human AMPK complex 1 (containing α1β1γ1), sequence (Q9Y478 whole entry): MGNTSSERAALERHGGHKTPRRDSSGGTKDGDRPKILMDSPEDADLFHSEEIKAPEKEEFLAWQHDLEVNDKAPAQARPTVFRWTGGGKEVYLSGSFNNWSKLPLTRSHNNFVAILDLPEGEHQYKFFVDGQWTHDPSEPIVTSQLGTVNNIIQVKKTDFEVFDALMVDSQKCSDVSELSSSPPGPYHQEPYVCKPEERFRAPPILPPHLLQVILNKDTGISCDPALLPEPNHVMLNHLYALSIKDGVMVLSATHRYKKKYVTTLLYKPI
# recombinant human AMPK complex 1 (containing α1β1γ1), sequence (P54619 whole entry partner): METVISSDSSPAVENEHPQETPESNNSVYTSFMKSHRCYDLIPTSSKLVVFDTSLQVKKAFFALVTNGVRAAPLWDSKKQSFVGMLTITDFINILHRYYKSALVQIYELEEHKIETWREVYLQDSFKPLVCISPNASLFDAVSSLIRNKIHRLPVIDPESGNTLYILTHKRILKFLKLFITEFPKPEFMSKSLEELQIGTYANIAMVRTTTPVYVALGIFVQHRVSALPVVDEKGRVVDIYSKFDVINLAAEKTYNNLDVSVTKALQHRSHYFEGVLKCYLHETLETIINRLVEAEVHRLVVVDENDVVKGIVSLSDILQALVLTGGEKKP
row,SMILES,Emax [%]
1,"Cc1ccc(Oc2nc3cc(-c4ccc5c(ccn5C(C)C)c4)c(Cl)cc3[nH]2)cc1C(=O)O [Example 253, 5-[6-Chloro-5-(1-isopropyl-1H-indol-5-yl)-1H-benzoimidazol-2-yloxy]-2-methyl-benzoic acid]",> 80

# Same assay, conditions: recombinant human AMPK complex 1 (α1β1γ1); basal activity subtracted; read-out: % Maximum AMP Activation of human AMPK Complex 1
row,SMILES,Emax [%]
1,"COC(=O)c1cc(Oc2nc3cc(C#Cc4ccc(OC)cc4)c(Cl)cc3[nH]2)ccc1C [Example 122, 5-[6-Chloro-5-(4-methoxy-phenylethynyl)-1H-benzoimidazol-2-yloxy]-2-methyl-benzoic acid methyl ester]",> 80
2,"Cc1ccc(Oc2nc3cc(C#Cc4ccc(-c5nnc(O)[nH]5)cc4)c(Cl)cc3[nH]2)cc1C(=O)O [Example 77, 5-{6-Chloro-5-[4-(5-hydroxy-4H-[1,2,4]triazol-3-yl)-phenylethynyl]-1H-benzoimidazol-2-yloxy}-2-methyl-benzoic acid]",> 80
3,"COc1ccc(C(=O)O)cc1Oc1nc2cc(-c3ccc(-c4ccccc4)cc3)c(Cl)cc2[nH]1 [Example 211, 3-(5-Biphenyl-4-yl-6-chloro-1H-benzoimidazol-2-yloxy)-4-methoxy-benzoic acid]",> 80
4,"Cc1ccc(Oc2nc3cc(-c4ccc5c(c4)CC(=O)N5C)c(Cl)cc3[nH]2)cc1C(=O)O [Example 304, 5-[6-Chloro-5-(1-methyl-2-oxo-2,3-dihydro-1H-indol-5-yl)-1H-benzoimidazol-2-yloxy]-2-methyl-benzoic acid]",> 80
5,"Cc1ccc(Oc2nc3cc(C#Cc4cccc(Cl)c4)c(Cl)cc3[nH]2)cc1C(=O)O [Example 110, 5-[6-Chloro-5-(3-chloro-phenylethynyl)-1H-benzoimidazol-2-yloxy]-2-methyl-benzoic acid]",> 80
6,"COC(=O)c1ccc(-c2cc3nc(Oc4ccc(C)c(C(=O)O)c4)[nH]c3cc2Cl)c2ccn(C)c12 [Example 269, 4-[2-(3-Carboxy-4-methyl-phenoxy)-6-chloro-1H-benzoimidazol-5-yl]-1-methyl-1H-indole-7-carboxylic acid methyl ester]",> 80
7,"Cc1ccc(Oc2nc3cc(C#CC4(O)CCCC4)c(Cl)cc3[nH]2)cc1C(=O)O [Example 135, 5[6-Chloro-5-(1-hydroxy-cyclopentylethynyl)-1H-benzoimidazol-2-yloxy]-2-methyl-benzoic acid]",> 80
8,"Cc1ccc(Oc2nc3cc(-c4ccc(-c5ccccc5N)cc4)c(Cl)cc3[nH]2)cc1C(=O)O [Example 205, 5-{[5-(2′-aminobiphenyl-4-yl)-6-chloro-1H-benzimidazol-2-yl]oxy}-2-methylbenzoic acid]",> 80
9,"COC(=O)c1cc(Oc2nc3cc(C#Cc4cccc(O)c4)c(Cl)cc3[nH]2)ccc1C [Example 125, 5-[6-Chloro-5-(3-hydroxy-phenylethynyl)-1H-benzoimidazol-2-yloxy]-2-methyl-benzoic acid methyl ester]",> 80
10,"Cc1ccc(Oc2nc3cc(C#Cc4ccc(C(=O)O)cc4)c(Cl)cc3[nH]2)cc1C(=O)O [Example 181, 5-[5-(4-Carboxy-phenylethynyl)-6-chloro-1H-benzoimidazol-2-yloxy]-2-methyl-benzoic acid]",> 80
11,"O=C(O)c1cc(Oc2nc3cc(-c4ccccc4O)c(Cl)cc3[nH]2)ccc1Cl [Example 59, 2-Chloro-5-[6-chloro-5-(2-hydroxy-phenyl)-1H-benzoimidazol-2-yloxy]-benzoic acid]",> 80
12,"Cc1ccc(Oc2nc3cc(-c4ccc5c(c4)CN(C)C5)c(Cl)cc3[nH]2)cc1C(=O)O [Example 300, 5-[2-(3-carboxy-4-methylphenoxy)-6-chloro-1H-benzimidazol-5-yl]-2-methyl-2,3-dihydro-1H-isoindolium trifluoroacetate]",> 80
13,"COC(=O)c1c(C)cc(Oc2nc3cc(-c4ccc(-c5ccccc5)cc4)c(Cl)cc3[nH]2)cc1C(=O)O [Example 12, 5-(5-Biphenyl-4-yl-6-chloro-1H-benzoimidazol-2-yloxy)-3-methyl-phthalic acid 2-methyl ester]",> 80
14,"O=C(O)c1cc(Oc2nc3cc(-c4ccccc4)c(Cl)cc3[nH]2)ccc1Cl [Example 61, 2-Chloro-5-(6-chloro-5-phenyl-1H-benzoimidazol-2-yloxy)-benzoic acid]",> 80
15,"Cc1ccc(Oc2nc3cc(-c4ccc(-c5ccccc5)cc4)c(Cl)cc3n2CC(=O)O)cc1C(=O)O [Example 224, 5-(5-Biphenyl-1-yl-1-carboxymethyl-6-chloro-1H-benzoimidazol-2-yloxy)-2-methyl-benzoic acid]",> 80
16,"COc1ccccc1-c1ccc(-c2cc3nc(Oc4ccc(C)c(C(=O)O)c4)[nH]c3cc2Cl)cc1 [Example 194, 5-{[6-chloro-5-(2′-methoxybiphenyl-4-yl)-1H-benzimidazol-2-yl]oxy}-2-methylbenzoic acid]",> 80
17,"Cc1ccc(Oc2nc3cc(-c4cccc5c4ccn5C)c(Cl)cc3[nH]2)cc1C(=O)O [Example 283, 5-[6-Chloro-5-(1-methyl-1H-indol-4-yl)-1H-benzoimidazol-2-yloxy]-2-methyl-benzoic acid]",> 80

row,SMILES,Emax [%]
1,"Cc1ccc(Oc2nc3cc(-c4ccc(N(C)C)c(C(F)(F)F)c4)c(Cl)cc3[nH]2)cc1C(=O)O [Example 295, 2-(3-carboxy-4-methylphenoxy)-6-chloro-5-[4-(dimethylamino)-3-(trifluoromethyl)phenyl]-1H-3,1-benzimidazol-3-ium chloride]",> 80
2,"Cc1ccc(Oc2nc3cc(-c4sc(-c5ccccc5)nc4C)c(Cl)cc3[nH]2)cc1C(=O)O [Example 361, 5-[6-chloro-5-(4-methyl-2-phenyl-thiazol-5-yl)-1H-benzoimidazol-2-yloxy]-2-methyl-benzoic acid]",> 80
3,"COc1cccc(-c2cc3nc(Oc4ccc(C)c(C(=O)O)c4)[nH]c3cc2Cl)n1 [Example 334, 2-(3-carboxy-4-methylphenoxy)-6-chloro-5-(6-methoxypyridin-2-yl)-1H-3,1-benzimidazol-3-ium formate]",> 80
4,"Cc1ccc(Oc2nc3cc(-c4ccc(-c5ccccc5F)cc4)c(Cl)cc3[nH]2)cc1C(=O)O [Example 192, 5-{[6-chloro-5-(2′-fluorobiphenyl-4-yl)-1H-benzimidazol-2-yl]oxy}-2-methylbenzoic acid]",> 80
5,"Cc1ccc(Oc2nc3cc(-c4ccc5ccnc(O)c5c4)c(Cl)cc3[nH]2)cc1C(=O)O [Example 238, 5-[6-Chloro-5-(1-hydroxy-isoquinolin-7-yl)-1H-benzoimidazol-2-yloxy]-2-methyl-benzoic acid]",> 80
6,"Cc1ccc(Oc2nc3cc(C#CC4CCCC4O)c(Cl)cc3[nH]2)cc1C(=O)O (stereo not drawn) [Example 130, 5-[6-Chloro-5-(2-hydroxy-cyclopentylethynyl)-1H-benzoimidazol-2-yloxy]-2-methyl-benzoic acid]",> 80
7,"Cc1ccc(Oc2nc3cc(C#Cc4cccc(F)c4)c(Cl)cc3[nH]2)cc1C(=O)O [Example 111, 5-[6-Chloro-5-(3-fluoro-phenylethynyl)-1H-benzoimidazol-2-yloxy]-2-methyl-benzoic acid]",> 80
8,"Cc1ccc(Oc2nc3cc(-c4ccc5c(c4)OCCO5)c(Cl)cc3[nH]2)cc1C(=O)O [Example 360, 5-[6-Chloro-5-(2,3-dihydro-benzo[1,4]dioxin-6-yl)-1H-benzoimidazol-2-yloxy]-2-methyl-benzoic acid]",> 80
9,"Cc1ccc(Oc2nc3cc(-c4ccc(C(C)C)c5c4CCN5C)c(Cl)cc3[nH]2)cc1C(=O)O [Example 268, 5-[6-Chloro-5-(7-isopropyl-1-methyl-2,3-dihydro-1H-indol-4-yl)-1H-benzoimidazol-2-yloxy]-2-methyl-benzoic acid]",> 80
10,"Cc1ccc(Oc2nc3cc(-c4ccc(C(=O)N(C)C)cc4)c(Cl)cc3[nH]2)cc1C(=O)O [Example 241, 5-[6-Chloro-5-(4-dimethylcarbamoyl-phenyl)-1H-benzoimidazol-2-yloxy]-2-methyl-benzoic acid]",> 80
11,"Cc1ccc(Oc2nc3cc(-c4ccc5c(c4)CCC5=O)c(Cl)cc3[nH]2)cc1C(=O)O [Example 266, 5-[6-Chloro-5-(1-oxo-indan-5-yl)-1H-benzoimidazol-2-yloxy]-2-methyl-benzoic acid]",> 80
12,"COC(=O)c1cc(Oc2nc3cc(C#Cc4ccccc4OC)c(Cl)cc3[nH]2)ccc1C [Example 107, 5-[6-Chloro-5-(2-methoxy-phenylethynyl)-1H-benzoimidazol-2-yloxy]-2-methyl-ester]",> 80
13,"Cc1ccc(Oc2nc3cc(-c4ccc(N(C)C)cc4)c(Cl)cc3[nH]2)cc1C(=O)O [Example 318, 2-(3-carboxy-4-methylphenoxy)-6-chloro-5-[4-(dimethylamino)phen-yl]-1H-benzimidazol-3-ium chloride]",> 80
14,"Cc1ccc(Oc2nc3cc(-c4ccc5nncn5c4)c(Cl)cc3[nH]2)cc1C(=O)O [Example 152, 5-(6-Chloro-5-[1,2,4]triazolo[4,3-a]pyridin-6-yl-1H-benzoimidazol-2-yloxy)-2-methyl-benzoic acid]",> 80
15,"Cc1ccc(Oc2nc3cc(-c4ccc(-c5ccccc5Cl)cc4)c(Cl)cc3[nH]2)cc1C(=O)O [Example 191, 5-{[6-chloro-5-(2′-chlorobiphenyl-4-yl)-1H-benzimidazol-2-yl]oxy}-2-methylbenzoic acid]",> 80
16,"COc1cc(-c2cc3nc(Oc4ccc(C)c(C(=O)O)c4)[nH]c3cc2Cl)ccc1O [Example 255, 2-(3-carboxy-4-methylphenoxy)-6-chloro-5-(4-hydroxy-3-methoxyphenyl)-1H-3,1-benzimidazol-3-ium trifluoroacetate]",> 80
17,"Cc1ccc(Oc2nc3cc(C#Cc4ccc(F)cc4F)c(Cl)cc3[nH]2)cc1C(=O)O [Example 76, 5-[6-Chloro-5-(2,4-difluoro-phenylethynyl)-1H-benzoimidazol-2-yloxy]-2-methyl-benzoic acid]",> 80

# Same assay, conditions: recombinant human AMPK complex 1 (α1β1γ1); read-out: EC50
row,SMILES,pEC50
1,"Cc1ccc(Oc2nc3cc(-c4ccc5c(c4)OCCN5C)c(Cl)cc3[nH]2)cc1C(=O)O [Example 151, 2-(3-carboxy-4-methylphenoxy)-6-chloro-5-(4-methyl-3,4-dihydro-2H-1,4-benzoxazin-7-yl)-1H-3,1-benzimidazol-3-ium chloride]",7.66
